Data on three compounds can be found in article PMC12473028, “Isolation and Biological Evaluation of Human Tyrosinase Inhibitors from the Fruit of Xanthium strumarium L” (Molecules, 2025).

Molecules are shown by their SMILES. Like-named read-outs stand apart in the source and are kept apart here.

Experiment in all cases: L-DOPA oxidation assay in MM418C1 cell lysate, single dose […] ([…] activity remaining)
What all share (conditions): read-out: % activity remaining at 1 mg/mL

In assay [1] the target is T1, human tyrosinase (hsTYR) (Homo sapiens, UniProt P14679).
T1 construct: gene TYR
T1 sequence (P14679 19-529): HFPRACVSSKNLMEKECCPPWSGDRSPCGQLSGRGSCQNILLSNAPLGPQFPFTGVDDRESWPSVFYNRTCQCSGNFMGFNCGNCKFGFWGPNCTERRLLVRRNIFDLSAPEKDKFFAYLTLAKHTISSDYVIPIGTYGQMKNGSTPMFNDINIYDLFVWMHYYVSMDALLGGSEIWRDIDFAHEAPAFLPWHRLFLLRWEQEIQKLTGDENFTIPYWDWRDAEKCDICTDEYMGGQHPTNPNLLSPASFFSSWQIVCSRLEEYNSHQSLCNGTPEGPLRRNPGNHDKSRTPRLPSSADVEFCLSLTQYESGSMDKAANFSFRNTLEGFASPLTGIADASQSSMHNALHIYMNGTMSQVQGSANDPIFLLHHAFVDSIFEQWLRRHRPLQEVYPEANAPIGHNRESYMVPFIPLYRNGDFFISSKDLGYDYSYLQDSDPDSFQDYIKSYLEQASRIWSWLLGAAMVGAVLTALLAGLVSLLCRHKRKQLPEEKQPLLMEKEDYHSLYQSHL
Type of assay: cell-free.

For assay [2], the target named is T1, human tyrosinase (hsTYR). Type of assay: biochemical.
In assay [3] the target is T1, human tyrosinase (hsTYR). It is filed as cell-free (cell lysate).

With `CC1(C)C(CO[C@@H]2O[C@H](CO)[C@@H](O)[C@H](O)[C@H]2O)=CC(=O)C2=C1SCC(=O)N2` [compound 9, xanthiside], the remaining activity at 1000 µg/mL in assay [1] was 76.9%.
Consider `O=C(/C=C/c1ccc(O)c(O)c1)O[C@@H]1CC(OC(=O)/C=C/c2ccc(O)c(O)c2)(C(=O)O)C[C@@H](O)C1O` (stereo partly drawn) [compound 11, 1,3-dicaffeoylquinic acid], for which the remaining activity at 1000 µg/mL in assay [2] came out at 78.1%.
Turning to `O=C(/C=C/c1ccc(O)c(O)c1)O[C@@H]1C[C@](O)(C(=O)O)C[C@@H](O)[C@H]1O` [compound 7, 5-caffeoylquinic acid], in assay [3], the remaining activity at 1000 µg/mL was found to be 68.1%.
